From US20180155344A1, “TRICYCLIC PIPERIDINE COMPOUNDS” (ACTELION PHARMACEUTICALS LTD, priority 2015, published 2018)

What follows are compounds tested against T1, human TPH1 (Homo sapiens, UniProt P17752) (assay: biochemical).
T1 sequence (P17752 1-444): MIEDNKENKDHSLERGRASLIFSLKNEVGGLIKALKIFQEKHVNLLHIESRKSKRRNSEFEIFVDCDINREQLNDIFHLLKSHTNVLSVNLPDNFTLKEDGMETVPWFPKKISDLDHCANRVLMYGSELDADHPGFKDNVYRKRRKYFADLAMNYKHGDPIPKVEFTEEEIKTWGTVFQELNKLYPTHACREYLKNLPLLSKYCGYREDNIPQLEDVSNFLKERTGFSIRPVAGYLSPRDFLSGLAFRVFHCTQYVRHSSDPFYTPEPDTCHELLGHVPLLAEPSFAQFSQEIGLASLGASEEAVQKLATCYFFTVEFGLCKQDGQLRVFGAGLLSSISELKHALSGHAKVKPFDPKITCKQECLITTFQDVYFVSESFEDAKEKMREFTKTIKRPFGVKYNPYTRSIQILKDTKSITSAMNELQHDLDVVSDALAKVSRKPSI
Text: Biochemical In Vitro Assay Using Fluorescence Readout
To generate the enzyme, full length human TPH1 is cloned into the plasmid pET20b(+) (Novagen) and expressed in E. coli. The bacterial cells are ruptured by sonication on ice and the lysate is cleared by centrifugation. The resulting protein in the pellet is re-extracted and TPH1 is purified from the obtained lysate by affinity chromatography using a pterin cosubstrate analog immobilized to the resin of the column. The protein is further purified by size exclusion chromatography to remove protein aggregates. The activity of TPH1 is determined by using a fluorescence assay. The enzyme activity assay is carried out at 15° C. with atmosphere oxygen for the duration of 60 minutes in a volume of 64 μl. The reaction is carried out in a 0.1 M Tris-HCl buffer, adjusted to pH 7.6, containing 1 mM DTT, 0.2 mg/mL catalase, 100 μM (±)-6-methyl-5,6,7,8-tetrahydropterine dihydrochloride, 40 μM L-tryptophan, and 40-80 nM of TPH1. The reaction is started by bringing together L-tryptophan with all the other reaction substituents and stopped by quenching with perchloric acid (HClO4). The amount of 5-hydroxy-L-tryptophan produced during the enzymatic reaction is determined by fluorescence readout. Fluorescence, as determined at 540 nm when excited at 300 nm wavelength, increases proportionally to the 5-hydroxy-L-tryptophan formed. Compounds are prepared as 10 mM stock solution in DMSO, then diluted in 384-well plates using DMSO followed by a transfer of the dilutions into the assay plate. Fluorescence is measured for each well and the fluorescence at 540 nm wavelength is compared to the fluorescence of the vehicle in place of compound. […] The calculated IC50 values may fluctuate depending on the daily biochemical assay performance. Fluctuations of this kind are known to those skilled in the art.

Row | SMILES | IC50 [nM]
1 | CCc1nc(C)ccc1OCC(=O)N1CCc2nc3cc(C(F)(F)F)ccn3c2C1c1ccc(C2CC2)cc1F (stereo not shown) [Example 3.5.1, 1-(1-(4-cyclopropyl-2-fluorophenyl)-7-(trifluoromethyl)-3,4-dihydroimidazo[1,2-a:5,4-c′]dipyridin-2(1H)-yl)-2-((2-ethyl-6-methylpyridin-3-yl)oxy)ethan-1-one] | 11
2 | COc1ccc(C2c3c(nc4cc(C(F)(F)F)ccn34)CCN2C(=O)COc2ccc3ccccc3c2)cc1O (stereo not shown) [Example 3.9.1, 1-(1-(3-hydroxy-4-methoxyphenyl)-7-(trifluoromethyl)-3,4-dihydroimidazo[1,2-a:5,4-c′]dipyridin-2(1H)-yl)-2-(naphthalen-2-yloxy)ethan-1-one] | 45
3 | CCc1nc(NS(C)(=O)=O)ccc1OCC(=O)N1CCc2nc3ccc(F)cn3c2C1c1sc(C)nc1C (stereo not shown) [Example 11.3.1, N-(5-(2-(1-(2,4-dimethylthiazol-5-yl)-8-fluoro-3,4-dihydroimidazo[1,2-a:5,4-c′]dipyridin-2(1H)-yl)-2-oxoethoxy)-6-ethylpyridin-2-yl)methanesulfonamide] | 48
4 | COc1cc(F)c(C2c3c(nc4cc(C(F)(F)F)ccn34)CCN2C(=O)COc2ccc(C3(N[S+]([O-])C(C)(C)C)COC3)cc2Cl)cc1OC (stereo not shown) [Example 3.18.8, N-(3-(3-chloro-4-(2-(1-(2-fluoro-4,5-dimethoxyphenyl)-7-(trifluoromethyl)-3,4-dihydroimidazo[1,2-a:5,4-c′]dipyridin-2(1H)-yl)-2-oxoethoxy)phenyl)oxetan-3-yl)-2-methylpropane-2-sulfinamide] | 48
5 | O=C(COc1ccc[n+]([O-])c1Cl)N1CCc2nc3cc(C(F)(F)F)ccn3c2C1c1ccc(C2CC2)cc1F (stereo not shown) [Example 3.5.4, 2-((2-chloro-1-(I1-oxidanyl)-1I4-pyridin-3-yl)oxy)-1-(1-(4-cyclopropyl-2-fluorophenyl)-7-(trifluoromethyl)-3,4-dihydroimidazo[1,2-a:5,4-c′]dipyridin-2(1H)-yl)ethan-1-one] | 210
6 | COc1ccc(C2c3c(nc4cc(C(F)(F)F)ccn34)CCN2C(=O)COc2ccc(Cl)cc2Cl)cc1OC (stereo not shown) [Example 3.1.2, 2-(2,4-Dichlorophenoxy)-1-(1-(3,4-dimethoxyphenyl)-7-(trifluoromethyl)-3,4-dihydroimidazo[1,2-a:5,4-c′]dipyridin-2(1H)-yl)ethan-1-one] | 30
7 | COc1ccc(C2c3c(nc4cc(C(F)(F)F)ccn34)CCN2C(=O)COc2ccc3ccccc3c2)cc1OC(F)F (stereo not shown) [Example 3.12.1, 1-(1-(3-(difluoromethoxy)-4-methoxyphenyl)-7-(trifluoromethyl)-3,4-dihydroimidazo[1,2-a:5,4-c′]dipyridin-2(1H)-yl)-2-(naphthalen-2-yloxy)ethan-1-one] | 41
8 | CCc1cc2nc3c(n2cc1C)C(c1ccc(OC)c(OC)c1)N(C(=O)COc1ccc2ccccc2c1)CC3 (stereo not shown) [Example 6.1.2, 1-(1-(3,4-dimethoxyphenyl)-7-ethyl-8-methyl-3,4-dihydroimidazo[1,2-a:5,4-c′]dipyridin-2(1H)-yl)-2-(naphthalen-2-yloxy)ethan-1-one] | 9
9 | COc1ccc(C2c3c(nc4cc(C(F)(F)F)ccn34)CCN2C(=O)COc2ccc3ccccc3c2)cc1OC(F)(F)F (stereo not shown) [Example 3.13.1, 1-(1-(4-methoxy-3-(trifluoromethoxy)phenyl)-7-(trifluoromethyl)-3,4-dihydroimidazo[1,2-a:5,4-c′]dipyridin-2(1H)-yl)-2-(naphthalen-2-yloxy)ethan-1-one] | 75
10 | O=C(COc1ccc2ccccc2c1)N1CCc2nc3cc(C(F)(F)F)ccn3c2C1c1nc2ccccc2s1 (stereo not shown) [Example 3.44.1, 1-(1-(benzo[d]thiazol-2-yl)-7-(trifluoromethyl)-3,4-dihydroimidazo[1,2-a:5,4-c′]dipyridin-2(1H)-yl)-2-(naphthalen-2-yloxy)ethan-1-one] | 76

The remaining compounds from weak to strong by IC50, led by results:

Row | IC50 [nM] | SMILES
11 | 418 | COc1ccc(C2c3c(nc4ccccn34)CCN2C(=O)COc2cc(C)ccc2C)cc1OC (stereo not shown) [Example 1.1.1, 1-(1-(3,4-dimethoxyphenyl)-3,4-dihydroimidazo[1,2-a:5,4-c′]dipyridin-2(1H)-yl)-2-(2,5-dimethylphenoxy)ethan-1-one]
12 | 328 | O=C(COc1ccc2ccccc2c1)N1CCc2nc3cc(C(F)(F)F)ccn3c2C1c1cnn(-c2ccccc2)c1 (stereo not shown) [Example 3.41.1, 2-(naphthalen-2-yloxy)-1-(1-(1-phenyl-1H-pyrazol-4-yl)-7-(trifluoromethyl)-3,4-dihydroimidazo[1,2-a:5,4-c′]dipyridin-2(1H)-yl)ethan-1-one]
13 | 98 | CS(=O)(=O)Nc1ccc(OCC(=O)N2CCc3nc4ccccn4c3C2c2ccc(C#N)cc2F)c(Cl)n1 (stereo not shown) [Example 1.20.1, N-(6-chloro-5-(2-(1-(4-cyano-2-fluorophenyl)-3,4-dihydroimidazo[1,2-a:5,4-c′]dipyridin-2(1H)-yl)-2-oxoethoxy)pyridin-2-yl)methanesulfonamide]
14 | 67 | Cc1ccc(C2c3c(nc4cc(C(F)(F)F)ccn34)CCN2C(=O)COc2ccc3ccccc3c2)cc1 (stereo not shown) [Example 3.23.1, 2-(naphthalen-2-yloxy)-1-(1-(p-tolyl)-7-(trifluoromethyl)-3,4-dihydroimidazo[1,2-a:5,4-c′]dipyridin-2(1H)-yl)ethan-1-one]
15 | 42 | Cc1nc(C)c(C2c3c(nc4cc(C(F)(F)F)ccn34)CCN2C(=O)COc2ccc(C(=O)N(C)C3CC3)nc2Cl)s1 (stereo not shown) [Example 3.59.2, 6-chloro-N-cyclopropyl-5-(2-(1-(2,4-dimethylthiazol-5-yl)-7-(trifluoromethyl)-3,4-dihydroimidazo[1,2-a:5,4-c′]dipyridin-2(1H)-yl)-2-oxoethoxy)-N-methylpicolinamide]
16 | 24 | O=C(COc1ccc(CN2CCOCC2)cc1Cl)N1CCc2nc3cc(C(F)(F)F)ccn3c2C1c1cnn(-c2ccccc2)c1 (stereo not shown) [Example 3.41.2, 2-(2-chloro-4-(morpholinomethyl)phenoxy)-1-(1-(1-phenyl-1H-pyrazol-4-yl)-7-(trifluoromethyl)-3,4-dihydroimidazo[1,2-a:5,4-c′]dipyridin-2(1H)-yl)ethan-1-one]
17 | 23 | O=C(COc1ccc(N2CCOCC2)cc1Cl)N1CCc2nc3ccccn3c2C1c1ncc(C2CC2)cc1F (stereo not shown) [Example 1.12.2, 2-(2-chloro-4-morpholinophenoxy)-1-(1-(5-cyclopropyl-3-fluoropyridin-2-yl)-3,4-dihydroimidazo[1,2-a:5,4-c′]dipyridin-2(1H)-yl)ethan-1-one]
18 | 22 | Cc1nc(C)c(C2c3c(nc4cc(C(F)(F)F)ccn34)CCN2C(=O)COc2ccc(-c3ncco3)nc2Cl)s1 (stereo not shown) [Example 3.59.1, 2-((2-chloro-6-(oxazol-2-yl)pyridin-3-yl)oxy)-1-(1-(2,4-dimethylthiazol-5-yl)-7-(trifluoromethyl)-3,4-dihydroimidazo[1,2-a:5,4-c′]dipyridin-2(1H)-yl)ethan-1-one]
19 | 20 | CCOc1ccc(C2c3c(nc4cc(C(F)(F)F)ccn34)CCN2C(=O)COc2ccc(CN3CCOCC3)cc2Cl)cc1 (stereo not shown) [Example 3.25.2, 2-(2-chloro-4-(morpholinomethyl)phenoxy)-1-(1-(4-ethoxyphenyl)-7-(trifluoromethyl)-3,4-dihydroimidazo[1,2-a:5,4-c′]dipyridin-2(1H)-yl)ethan-1-one]
20 | 8 | COc1ccc(C2c3c(nc4cc(C(F)(F)F)ccn34)CCN2C(=O)COc2ccc(CN3CCOCC3)c(C)c2C)c(F)c1 (stereo not shown) [Example 3.3.3, 2-(2,3-dimethyl-4-(morpholinomethyl)phenoxy)-1-(1-(2-fluoro-4-methoxyphenyl)-7-(trifluoromethyl)-3,4-dihydroimidazo[1,2-a:5,4-c′]dipyridin-2(1H)-yl)ethan-1-one]
21 | 5 | COc1cc(F)c(C2c3c(nc4cc(C(F)(F)F)ccn34)CCN2C(=O)COc2ccc3ccccc3c2)cc1OC (stereo not shown) [Example 3.18.1, 1-(1-(2-fluoro-4,5-dimethoxyphenyl)-7-(trifluoromethyl)-3,4-dihydroimidazo[1,2-a:5,4-c′]dipyridin-2(1H)-yl)-2-(naphthalen-2-yloxy)ethan-1-one]
22 | 5 | COc1ccc(C2c3c(nc4cc(C(F)(F)F)ccn34)CCN2C(=O)COc2ccc3ccccc3c2)c(F)c1 (stereo not shown) [Example 3.3.1, 1-(1-(2-fluoro-4-methoxyphenyl)-7-(trifluoromethyl)-3,4-dihydroimidazo[1,2-a:5,4-c′]dipyridin-2(1H)-yl)-2-(naphthalen-2-yloxy)ethan-1-one]
